{
  "source": "patent US20230381176A1",
  "about": "“A PHARMACEUTICAL COMPOSITION AND USE THEREOF FOR TREATMENT OF CANCER” (Ascentage Pharma (Suzhou) Co., Ltd., priority 2020, published 2023)",
  "test_system": "Neuroblastoma SH-SY5Y (ALK F1174L) xenograft",
  "experiment": "s.c. Neuroblastoma SH-SY5Y xenograft model, Compound 5 and Compound 33",
  "assay_type": "in vivo",
  "experimental": "A subcutaneous xenograft tumor model of human tumor immunodeficient mice was established by cell inoculation: tumor cells in logarithmic growth phase were collected, counted, resuspended in 1×PBS, and the cell suspension concentration was adjusted to 2.5-5 ×10^7/mL. The tumor cells were inoculated subcutaneously in the right side of immunodeficient mice with a 1 mL syringe ([…]), 5-10×10^6/0.2 mL/mouse. All animal experiments were strictly in accordance with the specifications for the use and management of experimental animals in GenePharma Co., Ltd. and Suzhou Ascentage Pharma Co., Ltd. The calculation of relevant parameters refers to the Chinese NMPA “Guidelines for Non-Clinical Research Techniques of Cytotoxic Anti-tumor Drugs”.\nAnimal body weight and tumor size were measured twice weekly during the experiment. The state of the animal and the presence or absence of death were observed every day. The growth of tumor and the effects of treatment on normal behavior of animals were monitored routinely, specifically involving experimental animal activity, feeding and drinking, weight gain or loss, eyes, clothing hair and other abnormalities. The deaths and clinical symptoms observed during the experiment were recorded in the raw data. All operations for administration and measurement of mouse body weight and tumor volume were performed in a clean bench. According to the requirements of the experimental protocol, after the end of the last administration, plasma and tumor tissues were collected, weighed and photographed. The plasma and tumor samples were frozen at −80° C. for ready-to-use.\nTumor volume (TV) is calculated as: TV=a×b^2/2, wherein a and b represent the length and width of the tumor to be measured, respectively.\nThe relative tumor volume (RTV) is calculated as: RTV=Vt/V1, wherein V1 is the tumor volume at the start of grouping and administration, and Vt is the tumor volume measured on the t day after administration.\nThe evaluation index of anti-tumor activity is the relative tumor proliferation rate T/C (%), and the calculation formula thereof is: relative tumor proliferation rate T/C (%)=(TRTV/CRTV)×100%, TRTV is the RTV of treatment group, CRTV is the RTV of solvent control group.\nChange of body weight (%)=(measured body weight−body weight at the start of grouping)/body weight at the start of grouping×100%.\nA dose of drug is considered to be severely toxic if the body weight of mouse is reduced by more than 20% or the number of drug-related deaths exceeds 20%.\nAccording to the description by Clarke R., Issues in experimental design and endpoint analysis in the study of experimental cytotoxic agents in vivo in breast cancer and other models [J]. Breast Cancer Research & Treatment, 1997, 46(2-3): 255-278, synergy analysis was evaluated using the following formula: synergy factor=((A/C)×(B/C))/(AB/C); A=RTV value of drug A alone group; B=RTV value of drug B alone group; C=RTV value of the solvent control group, and AB=RTV value of the A and B combination group.\nUse of mRECIST (Gao et al., 2015) measured tumor responses included stable disease (SD), partial tumor regression (PR), and complete regression (CR), determined by comparing tumor volume change at day t to its baseline: tumor volume change (%)=(Vt−V1)/V1. The BestResponse was the minimum value of tumor volume change (%) for t≥10. For each time t, the average of tumor volume changes from t=1 to t was also calculated. BestAvgResponse was defined as the minimum value of this average for t≥10. The criteria for response (mRECIST) were adapted from RECIST criteria (Gao et al., 2015; Therasse et al., 2000) and defined as follows: mCR, BestResponse<−95% and BestAvg Response<−40%; mPR, BestResponse<−50% and BestAvgResponse<−20%; mSD, BestResponse<35% and BestAvgResponse<30%; mPD, not otherwise categorized. SD, PR, and CR were considered responders and used to calculate response rate (%). […] Body weight of animals were monitored simultaneously. […]",
  "key": {"[1]": {"details": "Compound 5 50 mg/kg orally once per day, Compound 33 50 mg/kg orally once per day D1-D10 and once on D21"}},
  "data": [
    {"compound": "Cc1cc(Nc2ncc(Cl)c(Nc3ccccc3S(=O)(=O)C(C)C)n2)c(OC(C)C)cc1C1=CCN(C2CCOCC2)CC1", "note": "[Compound 5, 5-chloro-N^2-(2-isopropoxy-5-methyl-4-(1-(tetrahydro-2H-pyran-4-yl)-1,2,3,6-tetrahydropyridin-4-yl)phenyl)-N^4-(2-(isopropylsulfonyl)phenyl)pyrimidine-2,4-diamine]", "values": [
      {"measurement": "RTV on Day 21 after administration (mean + standard error)", "setting": "[1]", "value": "1.79 ± 0.22"},
      {"measurement": "T/C on Day 21 after administration (%)", "setting": "[1]", "value": 6.74, "unit": "%"},
      {"measurement": "DCR", "setting": "mouse, in vivo", "value": 60},
      {"measurement": "ORR (%)", "setting": "mouse, in vivo", "value": 0, "unit": "%"},
      {"measurement": "antitumor activity (conclusion in words)", "setting": "mouse, in vivo", "value": "strong antitumor activity"}
    ]}
  ]
}
